Test results published in patent US20190200664A1, “WATER AND FAT SOLUBLE MICRONUTIENT STABILIZED PARTICLES” (Massachusetts Institute of Technology, priority 2018, published 2019).

Test: Iron oxidation (ferrous to ferric) during boiling in water in an open container
Format: physicochemical
Details: 2 hours
Protocol: Dry micronutrient-loaded MPs were dispersed in water and then heated at 100° C. for 2 hours before being centrifuged at 4000 rpm for 5 min. Chemically stable MNs in both the supernatant and the MPs were quantified using the methods as described above. The stability percentage equals to the ratio of stable MN after heating as determined by HPLC to the actual loading content of the MN in the MPs. For samples in non-encapsulated form, they were either dissolved in water (water soluble vitamins such as vitamins B9 and B12) or dispersed in water (fat soluble vitamins such as vitamins A and D) before being heated for 2 hrs. Iron-loaded HA-EPO-MPs were dispersed in water and then heated at 100° C. for 2 hours and analyzed for ferrous and ferric content as described above.
It was investigated how iron encapsulation in HA-EPO-MPs impacts oxidation during boiling in water in an open container, since both higher temperatures and atmospheric exposure will accelerate iron oxidation. For encapsulated iron, less than 2% oxidizes to ferric iron, and for non-encapsulated iron over 15% is oxidized to ferric iron (FIG. 4D).

ferrous sulfate [Non-Encapsulated Fe]
iron oxidized to ferric iron: over 15%
